Laboratory results taken from patent US10597388B2, “Pyridazinone herbicides” (FMC CORPORATION, priority 2014, dated 2020).

Columns and labels:
Type in all cases: in vivo
[1] = system: surinam grass (Brachiaria decumbens); test: Test E greenhouse herbicide test, pre- and postemergence; conditions: Preemergence
Procedure, shortened: (§1)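 Compounds in surfactant-containing solvent are applied to soil right after sowing (silt loam) and, in parallel, to 1- to 4-leaf plants in a peat-based medium. Weed control is scored visually on a 0 (none) to 100 (complete) scale at 14 to 21 d.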

[2] = system: crabgrass, Brazilian (Brazilian crabgrass, Digitaria horizontalis); test: as above
Procedure, shortened: as §1

[3] = system: ragweed (common ragweed, Ambrosia elatior); test: as above
Procedure, shortened: as §1

[4] = system: goosegrass (Eleusine indica); test: as above; conditions: Preemergence
Procedure, shortened: as §1

[5] = system: field bindweed (Convolvulus arvensis); test: as above
Procedure, shortened: as §1

[6] = system: sandbur (southem sandbur, Cenchrus echinatus); test: as above
Procedure, shortened: as §1

[7] = system: panicum, fall (fall panicum, Panicum dichotomiflorum); test: as above
Procedure, shortened: as §1

[8] = system: foxtail, giant (giant foxtail, Setaria faberii); test: as above; conditions: Preemergence
Procedure, shortened: as §1

[9] = system: beggarticks (hairy beggarticks, Bidens pilosa); test: as above
Procedure, shortened: as §1

[10] = system: nightshade (eastern black nightshade, Solanum ptycanthum); test: as above; conditions: Preemergence
Procedure, shortened: as §1

[11] = system: horseweed (Conyza canadensis); test: as above; conditions: Postemergence
Procedure, shortened: as §1

[12] = system: crabgrass, large (large crabgrass, Digitaria sanguinalis); test: as above; conditions: Preemergence
Procedure, shortened: as §1

[13] = system: waterhemp (common waterhemp, Amaranthus rudis); test: as above
Procedure, shortened: as §1

kochia (Kochia scoparia) = test: as above
Procedure, shortened: as §1

[14] = system: waterhemp_RES2 (ALS & HPPD resistant common waterhemp, Amaranthus rudis); test: Test E greenhouse herbicide test, postemergence
Procedure, shortened: (§2)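 Resistant waterhemp plants grown in peat/vermiculite potting medium were sprayed postemergence at the 1- to 4-leaf stage (2–18 cm tall). After 14 to 21 d in the greenhouse, injury was visually rated against untreated controls on a 0–100 scale, where 0 is no effect and 100 is complete control.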

[15] = system: waterhemp_RES1 (ALS & Triazine resistant common waterhemp, Amaranthus rudis); test: Test E greenhouse herbicide test, postemergence
Procedure, shortened: as §2

[16] = 62 g ai/ha, scale 0 to 100 (0 no effect, 100 complete control)
[17] = 125 g ai/ha, scale 0 to 100 (0 no effect, 100 complete control)
[18] = 31 g ai/ha, scale 0 to 100, 0 no effect, 100 complete control
[19] = 250 g ai/ha, visual, scale 0 no effect to 100 complete control
[20] = 62 g ai/ha, Postemergence, scale 0 to 100 (0 no effect, 100 complete control)
[21] = 62 g ai/ha, Preemergence, scale 0 to 100 (0 no effect, 100 complete control)
[22] = 125 g ai/ha, Postemergence, scale 0 to 100 (0 no effect, 100 complete control)
[23] = 125 g ai/ha, Preemergence, scale 0 to 100 (0 no effect, 100 complete control)
[24] = 250 g ai/ha, Postemergence, scale 0 to 100 (0 no effect, 100 complete control)
[25] = Postemergence, 31 g ai/ha, visual, scale 0 no effect to 100 complete control
[26] = Preemergence, 31 g ai/ha, scale 0 to 100, 0 no effect, 100 complete control
[27] = Preemergence, 250 g ai/ha, visual, scale 0 no effect to 100 complete control
[28] = 250 g ai/ha, scale 0 to 100 (0 no effect, 100 complete control)
[29] = 31 g ai/ha, visual, scale 0 no effect to 100 complete control

## Cc1nn(C)c(=O)c(-c2ccc(Br)c3ccccc23)c1O [Compound 75]
[1]; [16]
  Plant response rating, Surinam Grass: 35
[1]; [17]
  Plant response rating, Surinam Grass: 60
[1]; [18]
  Plant response rating, Surinam Grass: 5
[1]; [19]
  Plant response rating, Surinam Grass: 90
[2]; [20]
  Plant response rating, Crabgrass, Brazil: 40
[2]; [21]
  Plant response rating, Crabgrass, Brazil: 20
[2]; [22]
  Plant response rating, Crabgrass, Brazil: 50
[2]; [23]
  Plant response rating, Crabgrass, Brazil: 90
[2]; [24]
  Plant response rating, Crabgrass, Brazil: 50
[2]; [25]
  Plant response rating, Crabgrass, Brazil: 40
[2]; [26]
  Plant response rating, Crabgrass, Brazil: 0
[2]; [27]
  Plant response rating, Crabgrass, Brazil: 90
[3]; [20]
  Plant response rating, Ragweed: 70
[3]; [21]
  Plant response rating, Ragweed: 65
[3]; [22]
  Plant response rating, Ragweed: 60
[3]; [23]
  Plant response rating, Ragweed: 80
[3]; [24]
  Plant response rating, Ragweed: 90
[3]; [25]
  Plant response rating, Ragweed: 55
[3]; [26]
  Plant response rating, Ragweed: 35
[3]; [27]
  Plant response rating, Ragweed: 100
[4]; [16]
  Plant response rating, Goosegrass: 0
[4]; [17]
  Plant response rating, Goosegrass: 0
[4]; [18]
  Plant response rating, Goosegrass: 0
[4]; [19]
  Plant response rating, Goosegrass: 5
[5]; [20]
  Plant response rating, Field Bindweed: 90
[5]; [21]
  Plant response rating, Field Bindweed: 5
[5]; [22]
  Plant response rating, Field Bindweed: 80
[5]; [23]
  Plant response rating, Field Bindweed: 100
[5]; [24]
  Plant response rating, Field Bindweed: 85
[5]; [25]
  Plant response rating, Field Bindweed: 85
[5]; [26]
  Plant response rating, Field Bindweed: 0
[5]; [27]
  Plant response rating, Field Bindweed: 98
[6]; [20]
  Plant response rating, Sandbur: 20
[6]; [21]
  Plant response rating, Sandbur: 10
[6]; [22]
  Plant response rating, Sandbur: 20
[6]; [23]
  Plant response rating, Sandbur: 40
[6]; [24]
  Plant response rating, Sandbur: 30
[6]; [25]
  Plant response rating, Sandbur: 10
[6]; [26]
  Plant response rating, Sandbur: 0
[6]; [27]
  Plant response rating, Sandbur: 70
[7]; [20]
  Plant response rating, Panicum, Fall: 40
[7]; [21]
  Plant response rating, Panicum, Fall: 50
[7]; [22]
  Plant response rating, Panicum, Fall: 50
[7]; [23]
  Plant response rating, Panicum, Fall: 80
[7]; [24]
  Plant response rating, Panicum, Fall: 60
[7]; [25]
  Plant response rating, Panicum, Fall: 50
[7]; [26]
  Plant response rating, Panicum, Fall: 10
[7]; [27]
  Plant response rating, Panicum, Fall: 90
[8]; [16]
  Plant response rating, Foxtail, Giant: 5
[8]; [17]
  Plant response rating, Foxtail, Giant: 35
[8]; [18]
  Plant response rating, Foxtail, Giant: 0
[8]; [19]
  Plant response rating, Foxtail, Giant: 75
[9]; [20]
  Plant response rating, Beggarticks: 95
[9]; [21]
  Plant response rating, Beggarticks: 80
[9]; [22]
  Plant response rating, Beggarticks: 100
[9]; [23]
  Plant response rating, Beggarticks: 100
[9]; [24]
  Plant response rating, Beggarticks: 100
[9]; [25]
  Plant response rating, Beggarticks: 100
[9]; [26]
  Plant response rating, Beggarticks: 35
[9]; [27]
  Plant response rating, Beggarticks: 100
[10]; [16]
  Plant response rating, Nightshade: 0
[10]; [17]
  Plant response rating, Nightshade: 90
[10]; [18]
  Plant response rating, Nightshade: 0
[10]; [19]
  Plant response rating, Nightshade: 100
[11]; [16]
  Plant response rating, Horseweed: 50
[11]; [17]
  Plant response rating, Horseweed: 60
[11]; [28]
  Plant response rating, Horseweed: 50
[11]; [29]
  Plant response rating, Horseweed: 40
[12]; [16]
  Plant response rating, Crabgrass, Large: 0
[12]; [17]
  Plant response rating, Crabgrass, Large: 0
[12]; [18]
  Plant response rating, Crabgrass, Large: 0
[12]; [19]
  Plant response rating, Crabgrass, Large: 30
[13]; [20]
  Plant response rating, Waterhemp: 90
[13]; [21]
  Plant response rating, Waterhemp: 60
[13]; [22]
  Plant response rating, Waterhemp: 90
[13]; [23]
  Plant response rating, Waterhemp: 100
[13]; [24]
  Plant response rating, Waterhemp: 95
[13]; [25]
  Plant response rating, Waterhemp: 80
[13]; [26]
  Plant response rating, Waterhemp: 50
[13]; [27]
  Plant response rating, Waterhemp: 100
Kochia (Kochia scoparia); [20]
  Plant response rating, Kochia: 98
Kochia (Kochia scoparia); [21]
  Plant response rating, Kochia: 100
Kochia (Kochia scoparia); [22]
  Plant response rating, Kochia: 100
Kochia (Kochia scoparia); [23]
  Plant response rating, Kochia: 100
Kochia (Kochia scoparia); [24]
  Plant response rating, Kochia: 100
Kochia (Kochia scoparia); [25]
  Plant response rating, Kochia: 90
Kochia (Kochia scoparia); [26]
  Plant response rating, Kochia: 98
Kochia (Kochia scoparia); [27]
  Plant response rating, Kochia: 100
[14]; [29]
  Plant response rating, Waterhemp_RES2: 60
[14]; [16]
  Plant response rating, Waterhemp_RES2: 60
[14]; [17]
  Plant response rating, Waterhemp_RES2: 60
[14]; [28]
  Plant response rating, Waterhemp_RES2: 75
[15]; [29]
  Plant response rating, Waterhemp_RES1: 90
[15]; [16]
  Plant response rating, Waterhemp_RES1: 90
[15]; [17]
  Plant response rating, Waterhemp_RES1: 95
[15]; [28]
  Plant response rating, Waterhemp_RES1: 90
